Here are results for three molecules from publication PMC10722238, “Development and validation of PAMPA-BBB QSAR model to predict brain penetration potential of novel drug candidates” (Frontiers in Pharmacology, 2023).

The nature of the data set: Stirring Double-Sink PAMPA-BBB permeability assay. It is filed as in vitro ADME, porcine. The settings on record: for PAMPA-BBB permeability category of control compound: control compounds used in each plate, category in words; for Papp at 60 min, 0.05 mM: pig, PAMPA, control compounds run in each plate for over 50 plates, 0.5% DMSO, phosphate buffer, room temperature, UV readout, read-out: PAMPA-BBB permeability Pe (mean ± S.D). An excerpt:
The stirring Double-SinkTM PAMPA-BBB method patented by Pion Inc. (Billerica, MA) was employed to determine the permeability of compounds ([[…], 2013]). The PAMPA lipid membrane, which consists of porcine brain lipid extract dissolved in alkane (Pion Inc.), was optimized to predict BBB passive permeability. This membrane was immobilized on a PVDF matrix of a 96 well “acceptor” filter plate placed on top of a 96 well “donor” plate containing coated magnetic stirrers. The test articles, stocked in 10 mM DMSO solutions, were diluted to 0.05 mM in aqueous phosphate buffer and the concentration of DMSO was 0.5% in the final solution. During the 60-min permeation study period, conducted at room temperature, the test samples in the donor compartment were stirred using the Gutbox technology (Pion Inc.) to reduce the aqueous boundary layer to 60 μm. The test article concentrations in the “donor” and “acceptor” compartments were measured using a UV plate reader (Nano Quant, Infinite® 200 PRO, Tecan Inc., Männedorf, Switzerland). Permeability (Pe) calculations were performed using Pion Inc. Software and were expressed in units of 10^-6 cm/s.

Bounds are passed on as bounds.

As for `NC(=O)N1c2ccccc2C=Cc2ccccc21` [Carbamazepine, carbamazepine], the “PAMPA-BBB permeability category of control compound” value (“PAMPA-BBB permeability category” for short) is reported as “moderate permeability” and the Papp at 60 min, 0.05 mM was 21 ± 2.3 ×10⁻⁶ cm/s.

For `Cn1c(=O)c2c(ncn2C)n(C)c1=O` [Caffeine, caffeine], the “PAMPA-BBB permeability category” value is given as “low permeability” and the Papp at 60 min, 0.05 mM was less than 1 ×10⁻⁶ cm/s.

On to `CC(=O)[C@H]1CC[C@H]2[C@@H]3CCC4=CC(=O)CC[C@]4(C)[C@H]3CC[C@]12C` [Progesterone, progesterone], for which the “PAMPA-BBB permeability category” value is given as “high permeability” and the Papp at 60 min, 0.05 mM was 87 ± 10.1 ×10⁻⁶ cm/s.
